In brackets after ≈: the same amount, converted by molar mass.

In test [1] the test system is Mycobacterium tuberculosis. Description: Minimum inhibitory concentration against H37Rv stain of Mycobacterium tuberculosis using Agar Microdilution. Type of test: functional.
Test [2] deals with Mycobacterium tuberculosis. Description: Minimum inhibitory concentration against H37Ra stain of Mycobacterium tuberculosis using MABA method. It is filed as functional.

By MIC is commonly meant the smallest concentration in the dilution series that meets the test's criterion for growth inhibition. Low readings indicate inhibition by little substance, high ones a need for much substance. Consider `O=C(c1ccc(OCc2ccc(Cl)c(Cl)c2)cc1)C1CC1`, for which the minimal inhibitory concentration (MIC) in test [1] was 25 µg/mL (≈ 77.8 µM); in test [2], above 25 µg/mL.

As to `COc1ccc(COc2ccc(C(=O)C3CC3)cc2)cc1OC`, the figures for the minimum inhibitory concentration (MIC) in test [1] and in test [2] were 12.5 µg/mL (≈ 40 µM) and 25 µg/mL (≈ 80 µM), respectively.

Consider `O=C(c1ccc(OCC2CCCCC2)cc1)C1CC1`, for which the MIC in test [1] and in test [2] was above 25 µg/mL each time.

In the case of `OC(c1ccc(OCc2ccc(F)cc2)cc1)C1CC1` (configuration not stated), the MIC is 6.25 µg/mL (≈ 23 µM) in test [1] and 25 µg/mL (≈ 91.8 µM) in test [2].

`Fc1ccc(COc2ccc(CC3CC3)cc2)cc1` showed a minimal inhibitory concentration (MIC) in test [1] of 12.5 µg/mL (≈ 48.8 µM).

As to `O=C(c1ccc(OCc2ccccc2)cc1)C1CC1`, the MIC in test [1] is 6.25 µg/mL (≈ 24.8 µM); in test [2], 25 µg/mL (≈ 99.1 µM).

Turning to `O=C(c1ccc(OCc2ccncc2)cc1)C1CC1`, the figures for the MIC in test [1] and in test [2] were 12.5 µg/mL (≈ 49.3 µM) and above 25 µg/mL, respectively.

With `O=C(c1ccc(OCCc2ccco2)cc1)C1CC1`, the MIC in test [1] and in test [2] was 25 µg/mL (≈ 97.5 µM) each time.

With `COc1ccc(COc2ccc(CC3CC3)cc2)cc1OC`, the MIC in test [1] is 25 µg/mL (≈ 83.8 µM); in test [2], 12.5 µg/mL (≈ 41.9 µM).

For the molecule `OC(c1ccc(OCc2cccnc2)cc1)C1CC1` (configuration not stated), the MIC in test [1] and in test [2] was above 25 µg/mL throughout.

On to `O=C(c1ccc(OCc2cccnc2)cc1)C1CC1`, for which the values for the minimum inhibitory concentration (MIC) in test [1] and in test [2] were 25 µg/mL (≈ 98.7 µM) and above 25 µg/mL, respectively.

For `O=C(c1ccc(OCc2ccc(Cl)cc2)cc1)C1CC1`, the minimum inhibitory concentration (MIC) in test [1] is 25 µg/mL (≈ 87.2 µM); in test [2], above 25 µg/mL.

Consider `OC(c1ccc(OCc2ccccc2)cc1)C1CC1` (configuration not stated), for which the results for the MIC in test [1] and in test [2] were 25 µg/mL (≈ 98.3 µM) and above 50 µg/mL, respectively.

Regarding `O=C(c1ccc(OCc2ccc(F)cc2)cc1)C1CC1`, the figures for the MIC in test [1] and in test [2] were 12.5 µg/mL (≈ 46.2 µM) and above 25 µg/mL, respectively.

For `COc1ccc(COc2ccc(C(O)C3CC3)cc2)cc1OC` (configuration not stated), the MIC in test [1] is above 50 µg/mL; in test [2], 3.12 µg/mL (≈ 9.92 µM).

Regarding `COc1ccc(COc2ccc(C(O)C3CC3)cc2)cc1` (configuration not stated), the minimal inhibitory concentration (MIC) in test [1] was 3.12 µg/mL (≈ 11 µM); in test [2] it was above 50 µg/mL.

For the molecule `COc1ccc(COc2ccc(CC3CC3)cc2)cc1`, the minimum inhibitory concentration (MIC) is 25 µg/mL (≈ 93.2 µM) in test [1] and above 25 µg/mL in test [2].

As for `OC(c1ccc(OCC2CCCC2)cc1)C1CC1` (configuration not stated), the MIC in test [1] was 3.12 µg/mL (≈ 12.7 µM); in test [2], 25 µg/mL (≈ 101 µM).

As to `O=C(c1ccc(OCC2CCCC2)cc1)C1CC1`, the MIC in test [1] was 25 µg/mL (≈ 102 µM); in test [2] it was above 25 µg/mL.

Turning to `OC(c1ccc(OCc2ccncc2)cc1)C1CC1` (configuration not stated), the MIC in test [1] and in test [2] was above 25 µg/mL each time.

For the molecule `OC(c1ccc(OCc2ccco2)cc1)C1CC1` (configuration not stated), the minimum inhibitory concentration (MIC) in test [1] and in test [2] was above 25 µg/mL throughout.

In the case of `c1cncc(COc2ccc(CC3CC3)cc2)c1`, the figures for the minimum inhibitory concentration (MIC) in test [1] and in test [2] were 25 µg/mL (≈ 104 µM) and above 25 µg/mL, respectively.

Turning to `COc1ccc(COc2ccc(C(=O)C3CC3)cc2)cc1`, the MIC was 12.5 µg/mL (≈ 44.3 µM) in test [1] and above 50 µg/mL in test [2].

In test [2], `OC(c1ccc(OCc2ccccc2Cl)cc1)C1CC1` (configuration not stated) yielded an MIC above 25 µg/mL.

For the molecule `Clc1ccccc1COc1ccc(CC2CC2)cc1`, the values for the minimum inhibitory concentration (MIC) in test [1] and in test [2] were above 50 µg/mL and above 25 µg/mL, respectively.

For `O=C(c1ccc(OCc2ccccc2Cl)cc1)C1CC1`, the MIC in test [1] is 12.5 µg/mL (≈ 43.6 µM); in test [2], above 25 µg/mL.

On to `c1ccc(COc2ccc(CC3CC3)cc2)cc1`, for which the MIC in test [1] was 12.5 µg/mL (≈ 52.4 µM); in test [2] it was above 50 µg/mL.

The record behind these values is ChEMBL document CHEMBL1142851, “An efficient synthesis of aryloxyphenyl cyclopropyl methanones: a new class of anti-mycobacterial agents” (2005).
